Assay results published in PubChem BioAssay AID328 (DTP/NCI, 2004).
Inconclusive results and toxic doses are left out. Rule for the calls: active = survival T/C of 150% or more; inactive = T/C below 125% in these data.

Test system: BDF1 mice, P388 leukemia ip, median survival T/C
Assay: NCI In Vivo Anticancer Drug Screen. Data for tumor model P388 Leukemia (intraperitoneal) in B6D2F1 (BDF1) mice
Conditions: endpoint: median survival time, higher = longer survival
How it was run: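 Transplantable tumour in mice; compound vs vehicle dosing; survival scored; ratio of treated to control reported.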

[1] = dose: 25.0 mg/kg/injection, schedule: Q01DX009 (ip), vehicle: saline with Tween-80
[2] = dose: 50.0 mg/kg/injection, schedule: Q01DX009 (ip), vehicle: saline with Tween-80
[3] = dose: 100.0 mg/kg/injection, schedule: Q01DX009 (ip), vehicle: saline with Tween-80
[4] = dose: 200.0 mg/kg/injection, schedule: Q01DX009 (ip), vehicle: saline with Tween-80
[5] = dose: 25.0 mg/kg/injection, schedule: Q01DX009 (ip), vehicle: saline
[6] = dose: 50.0 mg/kg/injection, schedule: Q01DX009 (ip), vehicle: saline
[7] = dose: 100.0 mg/kg/injection, schedule: Q01DX009 (ip), vehicle: saline
[8] = dose: 100.0 mg/kg/injection, schedule: Q04DX003 (ip), vehicle: saline
[9] = dose: 200.0 mg/kg/injection, schedule: Q04DX003 (ip), vehicle: saline
[10] = dose: 50.0 mg/kg/injection, schedule: Q04DX003 (ip), vehicle: saline
[11] = dose: 100.0 mg/kg/injection, schedule: Q01DX001 (ip), vehicle: saline with Tween-80
[12] = dose: 200.0 mg/kg/injection, schedule: Q01DX009 (ip), vehicle: saline

Measured: T/C

Cn1cnccc1=O
inactive: dose: 50.0 mg/kg/injection, schedule: Q01DX009 (ip), vehicle: water 122 % of control | dose: 100.0 mg/kg/injection, schedule: Q01DX009 (ip), vehicle: water 121 % of control | dose: 100.0 mg/kg/injection, schedule: Q04DX003 (ip), vehicle: water 118 % of control | dose: 200.0 mg/kg/injection, schedule: Q01DX009 (ip), vehicle: water 102 % of control | dose: 200.0 mg/kg/injection, schedule: Q04DX003 (ip), vehicle: water 106 % of control | dose: 400.0 mg/kg/injection, schedule: Q01DX009 (ip), vehicle: water 103 % of control | dose: 400.0 mg/kg/injection, schedule: Q04DX003 (ip), vehicle: water 115 % of control

CCC[n+]1ccc(/C=N\NC(N)=S)c2ccccc21
inactive: [1] 94 % of control | [2] 103 % of control | [3] 122 % of control | [4] 122 % of control

NC(N)=Nc1ccc(F)cc1
inactive: [2] 110 % of control | [3] 95 % of control | [4] 90 % of control

O=C(NC(=O)c1c(F)cccc1F)Nc1ccc(Cl)c(Cl)c1
inactive: [1] 96 % of control | [2] 97 % of control | [3] 100 % of control

Nc1ccc(CCCCc2ccc(Cl)cc2Cl)cc1
inactive: [5] 95 % of control | [6] 95 % of control | [7] 95 % of control | [8] 104 % of control | dose: 150.0 mg/kg/injection, schedule: Q01DX009 (ip), vehicle: saline 109 % of control | [9] 100 % of control

O=C(C(Br)C(Br)c1ccccc1)N1CCOCC1 (configuration not stated)
inactive: dose: 100.0 mg/kg/injection, schedule: Q04DX003 (ip), vehicle: saline sonified 104 % of control | dose: 200.0 mg/kg/injection, schedule: Q04DX003 (ip), vehicle: saline sonified 100 % of control | dose: 400.0 mg/kg/injection, schedule: Q04DX003 (ip), vehicle: saline sonified 113 % of control

NS(=O)(=O)c1c([N+](=O)[O-])ncn1C1OC(COC(=O)c2ccccc2)C(OC(=O)c2ccccc2)C1OC(=O)c1ccccc1 (configuration not stated)
inactive: dose: 25.0 mg/kg/injection, schedule: Q04DX003 (ip), vehicle: saline 105 % of control | [10] 100 % of control | [8] 121 % of control | [9] 124 % of control

N#C[SH2+].N#C[SH2+].N#C[SH2+].N#C[SH2+].[Cu+2].c1ccc(C[P+](c2ccccc2)(c2ccccc2)c2ccccc2)cc1
inactive: [11] 100 % of control

Nc1nc(N)c2cc([N+](=O)[O-])ccc2n1
inactive: [2] 96 % of control | [3] 101 % of control | [4] 99 % of control | dose: 400.0 mg/kg/injection, schedule: Q01DX009 (ip), vehicle: saline with Tween-80 95 % of control

CCOP(=O)(OCC)OCCCN(CC)CC
inactive: [5] 118 % of control | [6] 114 % of control | [10] 100 % of control | [7] 100 % of control | [8] 107 % of control | [12] 89 % of control | [9] 110 % of control | dose: 300.0 mg/kg/injection, schedule: Q04DX003 (ip), vehicle: saline 105 % of control

O=C(O)C(NC1CCCCC1)c1ccccc1 (configuration not stated)
inactive: [6] 120 % of control | [7] 105 % of control | [12] 100 % of control

C=CCC(CC)(C(=O)OCC)C(=O)OCC
inactive: [7] 100 % of control | [12] 104 % of control | dose: 400.0 mg/kg/injection, schedule: Q01DX009 (ip), vehicle: saline 122 % of control

CC(CC(C)(C)C)C(=O)CCC(C)(C)C (configuration not stated)
inactive: [11] 104 % of control | dose: 200.0 mg/kg/injection, schedule: Q01DX001 (ip), vehicle: saline with Tween-80 100 % of control | dose: 400.0 mg/kg/injection, schedule: Q01DX001 (ip), vehicle: saline with Tween-80 109 % of control
